Data from ChEMBL document CHEMBL5528050, “Discovery of a Novel Series of Homo sapiens Caseinolytic Protease P Agonists for Colorectal Adenocarcinoma Treatment via ATF3-Dependent Integrated Stress Response” (J Med Chem, 2024).
The source made the active and inactive calls. The calls are words filed in the database; no cut-off is given here.

Tests used:
[1] = biological target: T1, ATP-dependent Clp protease proteolytic subunit (Staphylococcus aureus (strain NCTC 8325)) (UniProt Q2G036); experiment: Agonist activity at Staphylococcus aureus ClpP using Suc-LY-AMC as substrate at 10 to 100 uM measured every 5 mins for 1 hr by fluorescence based analysis; conditions: dose 10-100 µM
T1 sequence (whole entry): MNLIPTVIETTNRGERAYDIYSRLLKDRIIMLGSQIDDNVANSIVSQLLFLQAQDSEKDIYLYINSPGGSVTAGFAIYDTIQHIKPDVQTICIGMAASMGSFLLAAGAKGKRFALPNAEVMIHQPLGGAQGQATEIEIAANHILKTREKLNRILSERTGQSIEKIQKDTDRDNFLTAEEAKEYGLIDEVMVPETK

Staphylococcus aureus = experiment: Antibacterial activity against Staphylococcus aureus ATCC43300 assessed as reduction in bacterial growth; format: functional
[2] = Antiproliferative activity against human HCoEpiC cells assessed as inhibition of cell growth measured after 72 hrs by CCK-8 method; format: toxicity, cell-based
HCT-116 [3] = experiment: Inhibition of mitochondrial function in human HCT-116 cells assessed as reduction in ATP production; format: functional, cell-based
HCT-116 [4] = experiment: Induction of apoptosis in human HCT-116 cells assessed as apoptotic rate at low dose measured after 48 hrs by annexin V-FITC/7-AAD based flow cytometry analysis relative to control; format: functional
HCT-116 [5] = experiment: Induction of apoptosis in human HCT-116 cells assessed as apoptotic rate at medium dose measured after 48 hrs by annexin V-FITC/7-AAD based flow cytometry analysis relative to control; format: functional
HCT-116 [6] = experiment: Induction of apoptosis in human HCT-116 cells assessed as cell death at 2 uM measured after 48 hrs by annexin V-FITC/7-AAD based flow cytometry analysis relative to control; format: functional
HCT-116 [7] = experiment: Induction of apoptosis in human HCT-116 cells assessed as reduction in SDHB expression measured after 48 hrs by Western blot analysis; format: functional, cell-based; conditions: dose 0.5-2 µM
HCT-116 [8] = experiment: Induction of apoptosis in human HCT-116 cells assessed as upregulation of bax expression at 0.5 to 2 uM measured after 48 hrs by Western blot analysis; format: functional, cell-based; conditions: dose 0.5-2 µM
HCT-116 [9] = experiment: Induction of cell cycle arrest in human HCT-116 cells assessed as increase in number of cells at G2 phase at high dose measured after 48 hrs by PI staining based flow cytometry analysis; format: functional
[10] = Acute toxicity in BALB/c mouse assessed as survival at 50 mg/kg, iv administered as single dose measured upto 14 days; format: organism-based; conditions: in vivo, 336 h, time < 14 day
[11] = Acute toxicity in BALB/c mouse assessed as effect on heart at 50 mg/kg, iv administered as single dose measured upto 14 days by H and E staining based analysis; format: organism-based; conditions: in vivo, 336 h, time < 14 day
[12] = Acute toxicity in BALB/c mouse assessed as effect on liver at 50 mg/kg, iv administered as single dose measured upto 14 days by H and E staining based analysis; format: organism-based; conditions: in vivo, 336 h, time < 14 day
[13] = Acute toxicity in BALB/c mouse assessed as effect on lung at 50 mg/kg, iv administered as single dose measured upto 14 days by H and E staining based analysis; format: organism-based; conditions: in vivo, 336 h, time < 14 day
[14] = Acute toxicity in BALB/c mouse assessed as reduction in body weight at low dose iv measured upto 21 days relative to control; format: organism-based; set-up: scale not given: the % may be the effect or the level left; conditions: in vivo, 504 h, time < 21 day
[15] = Acute toxicity in BALB/c mouse assessed as effect on body weight at middle to high dose iv measured upto 21 days relative to control; format: organism-based; conditions: in vivo, 504 h, time < 21 day
[16] = Acute toxicity in BALB/c mouse assessed as increase in body weight at 5 mg/kg, iv measured upto 21 days relative to control; format: organism-based; conditions: in vivo, 504 h, time < 21 day
HCT-116 [17] = experiment: Antitumor activity against human HCT-116 cells xenografted in BALB/c nude mouse model assessed as reduction in tumor volume at 2.5 mg/kg,iv administered twice weekly and measured upto 21 days relative to control; format: functional; set-up: scale not given: the % may be the effect or the level left; conditions: time <= 21 day
HCT-116 [18] = experiment: Antitumor activity against human HCT-116 cells xenografted in BALB/c nude mouse model assessed as reduction in tumor volume at 5 mg/kg,iv and measured upto 21 days relative to control; format: functional; set-up: scale not given: the % may be the effect or the level left; conditions: time <= 21 day
HCT-116 [19] = experiment: Antitumor activity against human HCT-116 cells xenografted in BALB/c nude mouse model assessed as decrease in Bcl-2 expression at upto 5 mg/kg, iv administered twice weekly by Western blot analysis; format: functional, organism-based
[20] = Toxicity in BALB/c nude mouse assessed as effect on kidney at 1.25 to 5 mg/kg, iv administered twice weekly and measured after 21 days by H and E staining based analysis; format: organism-based; conditions: in vivo, 504 h, dose 1.25-5 mg/kg, time 21 day
[21] = AUC (0 to 12hrs) in Sprague-Dawley rat at 10 mg/kg, iv by LC-MS/MS analysis; format: ADME, organism-based; conditions: in vivo
[22] = Half life in Sprague-Dawley rat at 10 mg/kg, iv by LC-MS/MS analysis; format: ADME, organism-based; conditions: in vivo
[23] = MRT (0 to 24 hrs) in Sprague-Dawley rat at 10 mg/kg, iv by LC-MS/MS analysis; format: ADME, organism-based; conditions: in vivo
[24] = Cmax in Sprague-Dawley rat at 10 mg/kg, po by LC-MS/MS analysis; format: ADME, organism-based; conditions: in vivo
[25] = Tmax in Sprague-Dawley rat at 10 mg/kg, po by LC-MS/MS analysis; format: ADME, organism-based; conditions: in vivo
[26] = Half life in Sprague-Dawley rat at 10 mg/kg, po by LC-MS/MS analysis; format: ADME, organism-based; conditions: in vivo
[27] = MRT (0 to 12hrs) in Sprague-Dawley rat at 10 mg/kg, po by LC-MS/MS analysis; format: ADME, organism-based; conditions: in vivo
[28] = Oral bioavailability in Sprague-Dawley rat at 10 mg/kg by LC-MS/MS analysis; format: ADME, organism-based; conditions: in vivo
[29] = Metabolic stability in human liver microsomes assessed as half life at 1 uM measured upto 60 mins in presence of NADPH regenerating system by LC-MS/MS analysis; format: ADME, Microsome
HCT-116 [30] = experiment: Upregulation of ATF3 mRNA expression in human HCT-116 cells by RT-PCR analysis; format: functional, cell-based
HCT-116 [31] = experiment: Upregulation of JUN expression in human HCT-116 cells measured after 48 hrs by Western blot analysis; format: functional, cell-based
HCT-116 [32] = experiment: Effect on DDIT3 expression in ClpP knockdown human HCT-116 cells at 2 uM measured after 48 hrs by Western blot analysis; format: functional, cell-based
HCT-116 [33] = experiment: Effect on DDIT4 expression in ClpP knockdown human HCT-116 cells at 2 uM measured after 48 hrs by Western blot analysis; format: functional, cell-based
HCT-116 [34] = experiment: Effect on JUN expression in ClpP knockdown human HCT-116 cells at 2 uM measured after 48 hrs by Western blot analysis; format: functional, cell-based
HCT-116 [35] = experiment: cells; conditions: Homo sapiens, HCT-116, 72 h
Description: Antiproliferative activity against human HCT-116 cells assessed as inhibition of cell growth measured after 72 hrs by CCK-8 method

SW-620 = experiment: cells; conditions: Homo sapiens, SW-620, 72 h
Description: Antiproliferative activity against human SW-620 cells assessed as inhibition of cell growth measured after 72 hrs by CCK-8 method

HCT-15 = experiment: cells; conditions: Homo sapiens, HCT-15, 72 h
Description: Antiproliferative activity against human HCT-15 cells assessed as inhibition of cell growth measured after 72 hrs by CCK-8 method

SW480 = experiment: cells; conditions: Homo sapiens, SW480, 72 h
Description: Antiproliferative activity against human SW480 cells assessed as inhibition of cell growth measured after 72 hrs by CCK-8 method

**Q.** Which results are given for `N#Cc1cccc(CN2CCC=C(C(=O)NCc3ccc(C(F)(F)F)cc3)C2)c1`?
**A.** Activity [1]: inactive; MIC (Staphylococcus aureus): > 128 µg/mL; IC50 at 72 h [2]: 75.2 µM; inhibition (HCT-116 [3]): Active; Activity (HCT-116 [4]): 22%; Activity (HCT-116 [5]): 46%; Activity (HCT-116 [6]): 60%; Activity (HCT-116 [7]): Dose-Dependent Effect; Activity (HCT-116 [8]): Active; Activity (HCT-116 [9]): ~40%; Activity [10]: Non-Toxic; Activity [11]: Non-Toxic; Activity [12]: Non-Toxic; Activity [13]: Non-Toxic; Activity [14]: 10%; Activity [15]: Non-Toxic; Activity [16]: Toxic; Activity (HCT-116 [17]): 70%; Activity (HCT-116 [18]): 83.6%; Activity (HCT-116 [19]): Active; Activity [20]: Non-Toxic; AUC [21]: 1433.6 ng·h/mL; half-life [22]: 288 min; MRT last [23]: 3.1 h; Cmax [24]: 137 ng/mL; Tmax [25]: 5.4 h; half-life [26]: 282 min; MRT last [27]: 6.7 h; bioavailability [28]: 54.2%; half-life at 1 µM [29]: 6.1 min; Activity (HCT-116 [30]): Active; Activity (HCT-116 [31]): Active; Activity (HCT-116 [32]): inactive; Activity (HCT-116 [33]): inactive; Activity (HCT-116 [34]): inactive; IC50 (HCT-116 [35]): 1000 nM; IC50 (SW-620): 1500 nM; IC50 (HCT-15): 3.5 µM; IC50 (SW480): 5.4 µM
